Assays:
[1] = target: Kappa-type opioid receptor (Homo sapiens, UniProt P41145)
[2] = target: Glutamate receptor ionotropic, NMDA 1 (Rattus norvegicus, UniProt P35439)
[3] = target: Beta-1 adrenergic receptor (Homo sapiens, UniProt P08588); assay type: functional
[4] = target: Vasopressin V1a receptor (Homo sapiens, UniProt P37288)
[5] = target: T1, Thromboxane A2 receptor (Homo sapiens, UniProt P21731)
T1 sequence (P21731 whole entry): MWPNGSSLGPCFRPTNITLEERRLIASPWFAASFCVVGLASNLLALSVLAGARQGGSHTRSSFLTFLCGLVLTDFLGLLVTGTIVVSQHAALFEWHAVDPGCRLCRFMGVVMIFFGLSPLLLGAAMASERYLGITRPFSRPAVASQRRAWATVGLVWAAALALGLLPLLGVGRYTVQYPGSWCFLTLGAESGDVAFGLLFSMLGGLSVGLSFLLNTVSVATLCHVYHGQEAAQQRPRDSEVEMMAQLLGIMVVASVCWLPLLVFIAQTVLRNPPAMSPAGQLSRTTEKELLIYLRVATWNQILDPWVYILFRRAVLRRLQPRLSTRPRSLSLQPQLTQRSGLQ

[6] = target: Vasopressin V2 receptor (Homo sapiens, UniProt P30518)
[7] = target: T2, Cannabinoid receptor 1 (Homo sapiens, UniProt P21554)
[8] = target: T2, Cannabinoid receptor 1; assay type: functional, cell-based
[9] = target: Sodium-dependent serotonin transporter (Homo sapiens, UniProt P31645)
[10] = target: 5-hydroxytryptamine receptor 2A (Homo sapiens, UniProt P28223); assay type: functional, cell-based
[11] = target: Muscarinic acetylcholine receptor M3 (Homo sapiens, UniProt P20309)
[12] = target: T3, Mu-type opioid receptor (Homo sapiens, UniProt P35372); assay: biochemical; assay type: functional
[13] = target: Acetylcholinesterase (Homo sapiens, UniProt P22303); assay type: functional
[14] = target: T4, Alpha-1A adrenergic receptor (Homo sapiens, UniProt P35348); assay type: functional, cell-based
T4 sequence (P35348 whole entry): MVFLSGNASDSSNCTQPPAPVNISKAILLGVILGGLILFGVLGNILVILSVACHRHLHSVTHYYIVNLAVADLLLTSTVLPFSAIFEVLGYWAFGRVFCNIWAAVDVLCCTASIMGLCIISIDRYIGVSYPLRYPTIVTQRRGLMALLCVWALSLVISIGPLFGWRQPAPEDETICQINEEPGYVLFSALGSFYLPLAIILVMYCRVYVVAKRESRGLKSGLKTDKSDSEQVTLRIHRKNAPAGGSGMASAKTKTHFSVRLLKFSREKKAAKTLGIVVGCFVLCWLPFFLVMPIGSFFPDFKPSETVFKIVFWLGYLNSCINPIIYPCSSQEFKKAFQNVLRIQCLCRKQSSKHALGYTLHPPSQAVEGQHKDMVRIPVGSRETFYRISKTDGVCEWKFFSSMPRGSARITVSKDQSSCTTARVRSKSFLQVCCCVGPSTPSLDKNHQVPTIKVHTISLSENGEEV

[15] = target: D(3) dopamine receptor (Homo sapiens, UniProt P35462)
[16] = target: 5-hydroxytryptamine receptor 2B (Homo sapiens, UniProt P41595); assay type: functional, cell-based
[17] = target: T3, Mu-type opioid receptor
[18] = target: T5, Alpha-2A adrenergic receptor (Homo sapiens, UniProt P08913)
T5 sequence (P08913 whole entry): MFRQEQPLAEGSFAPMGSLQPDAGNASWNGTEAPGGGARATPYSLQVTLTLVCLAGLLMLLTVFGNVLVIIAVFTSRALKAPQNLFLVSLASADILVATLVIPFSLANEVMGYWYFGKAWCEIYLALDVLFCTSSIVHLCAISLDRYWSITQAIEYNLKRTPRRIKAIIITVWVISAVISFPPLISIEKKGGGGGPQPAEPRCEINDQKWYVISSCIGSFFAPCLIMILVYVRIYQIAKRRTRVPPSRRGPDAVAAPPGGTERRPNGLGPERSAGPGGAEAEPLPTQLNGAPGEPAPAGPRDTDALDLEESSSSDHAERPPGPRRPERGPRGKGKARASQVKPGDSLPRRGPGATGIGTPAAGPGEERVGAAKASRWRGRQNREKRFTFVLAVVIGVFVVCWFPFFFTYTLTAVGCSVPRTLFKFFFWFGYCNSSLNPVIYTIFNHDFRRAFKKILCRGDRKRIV

[19] = target: D(1A) dopamine receptor (Homo sapiens, UniProt P21728)
[20] = target: Prostaglandin G/H synthase 1 (Homo sapiens, UniProt P23219); assay type: functional
Also: assay procedure not described here.

5-hydroxytryptamine receptor 2A, sequence (P28223 whole entry): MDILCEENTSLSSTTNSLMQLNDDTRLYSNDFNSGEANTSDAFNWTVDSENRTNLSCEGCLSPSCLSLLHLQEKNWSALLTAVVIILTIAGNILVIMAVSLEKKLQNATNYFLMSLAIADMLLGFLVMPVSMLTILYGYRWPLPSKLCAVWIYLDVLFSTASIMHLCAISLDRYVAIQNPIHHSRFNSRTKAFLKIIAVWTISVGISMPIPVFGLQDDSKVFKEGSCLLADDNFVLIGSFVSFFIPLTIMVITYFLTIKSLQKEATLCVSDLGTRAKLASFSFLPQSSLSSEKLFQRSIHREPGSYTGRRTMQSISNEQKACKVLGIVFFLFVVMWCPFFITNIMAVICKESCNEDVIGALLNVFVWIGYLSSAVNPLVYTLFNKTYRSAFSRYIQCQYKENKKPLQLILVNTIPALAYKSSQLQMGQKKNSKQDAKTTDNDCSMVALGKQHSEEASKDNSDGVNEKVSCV
Beta-1 adrenergic receptor, sequence (P08588 whole entry): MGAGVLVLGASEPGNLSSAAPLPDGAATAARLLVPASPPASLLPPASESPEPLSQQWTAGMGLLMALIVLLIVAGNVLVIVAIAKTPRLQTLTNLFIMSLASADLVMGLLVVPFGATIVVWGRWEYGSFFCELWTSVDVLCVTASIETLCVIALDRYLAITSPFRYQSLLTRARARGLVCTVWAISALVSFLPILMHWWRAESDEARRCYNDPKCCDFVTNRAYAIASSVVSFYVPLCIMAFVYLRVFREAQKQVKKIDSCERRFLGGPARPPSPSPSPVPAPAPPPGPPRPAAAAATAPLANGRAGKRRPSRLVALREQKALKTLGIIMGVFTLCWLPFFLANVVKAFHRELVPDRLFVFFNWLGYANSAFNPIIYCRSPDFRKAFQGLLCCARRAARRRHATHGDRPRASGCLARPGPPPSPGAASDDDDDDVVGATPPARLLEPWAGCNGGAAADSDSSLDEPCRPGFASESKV
T2 sequence (P21554 whole entry): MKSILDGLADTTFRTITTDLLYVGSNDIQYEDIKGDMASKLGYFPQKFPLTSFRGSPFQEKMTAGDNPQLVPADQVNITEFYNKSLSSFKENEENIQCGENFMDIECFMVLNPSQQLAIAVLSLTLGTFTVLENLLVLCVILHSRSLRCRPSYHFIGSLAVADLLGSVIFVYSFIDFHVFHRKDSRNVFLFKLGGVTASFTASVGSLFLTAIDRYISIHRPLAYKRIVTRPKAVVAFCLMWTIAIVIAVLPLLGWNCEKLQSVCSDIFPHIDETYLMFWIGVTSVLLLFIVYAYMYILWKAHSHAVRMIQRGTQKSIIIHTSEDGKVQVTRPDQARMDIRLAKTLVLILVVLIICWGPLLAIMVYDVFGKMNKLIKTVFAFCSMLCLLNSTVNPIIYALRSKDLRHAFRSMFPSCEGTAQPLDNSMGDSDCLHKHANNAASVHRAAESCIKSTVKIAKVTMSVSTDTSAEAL
T3 sequence (P35372 whole entry): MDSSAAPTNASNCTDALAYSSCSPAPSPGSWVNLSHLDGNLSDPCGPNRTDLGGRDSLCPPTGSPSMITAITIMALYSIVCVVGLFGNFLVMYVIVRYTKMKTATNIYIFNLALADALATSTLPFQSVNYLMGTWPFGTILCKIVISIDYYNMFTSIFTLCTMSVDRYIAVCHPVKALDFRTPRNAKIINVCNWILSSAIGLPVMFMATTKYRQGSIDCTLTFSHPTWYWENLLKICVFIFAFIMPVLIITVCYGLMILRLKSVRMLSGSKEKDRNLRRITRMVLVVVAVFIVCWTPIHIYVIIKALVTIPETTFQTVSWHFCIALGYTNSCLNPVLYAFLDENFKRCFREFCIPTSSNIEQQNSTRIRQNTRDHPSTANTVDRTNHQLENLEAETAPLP
Sodium-dependent serotonin transporter, sequence (P31645 whole entry): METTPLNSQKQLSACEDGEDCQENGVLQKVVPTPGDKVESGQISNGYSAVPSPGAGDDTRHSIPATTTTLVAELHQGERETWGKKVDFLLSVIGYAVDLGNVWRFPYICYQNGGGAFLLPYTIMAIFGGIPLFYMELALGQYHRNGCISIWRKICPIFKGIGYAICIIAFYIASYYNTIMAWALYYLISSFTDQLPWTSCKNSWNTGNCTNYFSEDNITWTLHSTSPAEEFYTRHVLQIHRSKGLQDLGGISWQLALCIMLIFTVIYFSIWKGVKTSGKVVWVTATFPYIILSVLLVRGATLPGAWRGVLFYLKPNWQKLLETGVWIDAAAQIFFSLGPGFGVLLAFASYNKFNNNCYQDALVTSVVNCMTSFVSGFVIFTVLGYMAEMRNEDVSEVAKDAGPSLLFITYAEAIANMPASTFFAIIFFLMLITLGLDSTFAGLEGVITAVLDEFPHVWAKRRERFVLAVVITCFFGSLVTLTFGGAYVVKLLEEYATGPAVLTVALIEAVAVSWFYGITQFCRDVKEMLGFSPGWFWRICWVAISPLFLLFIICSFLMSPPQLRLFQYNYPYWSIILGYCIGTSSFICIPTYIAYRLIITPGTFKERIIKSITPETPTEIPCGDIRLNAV
Muscarinic acetylcholine receptor M3, sequence (P20309 whole entry): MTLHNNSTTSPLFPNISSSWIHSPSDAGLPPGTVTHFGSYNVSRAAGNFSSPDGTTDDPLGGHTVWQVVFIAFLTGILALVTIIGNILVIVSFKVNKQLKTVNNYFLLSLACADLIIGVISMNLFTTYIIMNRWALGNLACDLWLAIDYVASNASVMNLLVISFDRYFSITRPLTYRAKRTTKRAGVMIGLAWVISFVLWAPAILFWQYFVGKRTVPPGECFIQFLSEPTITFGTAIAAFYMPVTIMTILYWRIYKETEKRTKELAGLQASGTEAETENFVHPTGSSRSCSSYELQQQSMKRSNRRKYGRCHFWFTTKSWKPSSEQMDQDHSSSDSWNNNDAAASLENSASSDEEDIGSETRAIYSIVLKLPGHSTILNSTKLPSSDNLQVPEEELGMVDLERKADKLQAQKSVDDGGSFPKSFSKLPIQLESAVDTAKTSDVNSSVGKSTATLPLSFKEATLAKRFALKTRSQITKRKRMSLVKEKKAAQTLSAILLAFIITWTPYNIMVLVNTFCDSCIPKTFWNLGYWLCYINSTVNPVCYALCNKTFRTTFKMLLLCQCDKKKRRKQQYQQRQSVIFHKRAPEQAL
Vasopressin V1a receptor, sequence (P37288 whole entry): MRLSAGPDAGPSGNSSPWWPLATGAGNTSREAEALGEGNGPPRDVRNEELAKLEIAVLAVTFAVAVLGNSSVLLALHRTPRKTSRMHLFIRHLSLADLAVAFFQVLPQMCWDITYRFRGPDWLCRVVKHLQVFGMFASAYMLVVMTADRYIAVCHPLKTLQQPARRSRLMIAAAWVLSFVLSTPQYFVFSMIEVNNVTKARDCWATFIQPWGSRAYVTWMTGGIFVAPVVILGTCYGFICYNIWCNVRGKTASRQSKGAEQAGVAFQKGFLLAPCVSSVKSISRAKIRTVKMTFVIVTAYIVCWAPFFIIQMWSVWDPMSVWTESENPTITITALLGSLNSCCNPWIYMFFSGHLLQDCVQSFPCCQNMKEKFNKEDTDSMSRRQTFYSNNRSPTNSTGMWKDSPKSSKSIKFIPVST
Kappa-type opioid receptor, sequence (P41145 whole entry): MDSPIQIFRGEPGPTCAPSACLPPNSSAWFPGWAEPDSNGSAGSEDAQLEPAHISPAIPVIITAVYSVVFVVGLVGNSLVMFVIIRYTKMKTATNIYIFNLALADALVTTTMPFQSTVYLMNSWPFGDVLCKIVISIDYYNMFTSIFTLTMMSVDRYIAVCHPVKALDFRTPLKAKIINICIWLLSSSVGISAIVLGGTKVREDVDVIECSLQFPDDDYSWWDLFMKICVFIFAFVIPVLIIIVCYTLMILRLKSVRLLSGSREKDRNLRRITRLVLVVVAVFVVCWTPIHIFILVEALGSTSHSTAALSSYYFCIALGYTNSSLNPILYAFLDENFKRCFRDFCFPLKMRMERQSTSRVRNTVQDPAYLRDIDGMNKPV
Vasopressin V2 receptor, sequence (P30518 whole entry): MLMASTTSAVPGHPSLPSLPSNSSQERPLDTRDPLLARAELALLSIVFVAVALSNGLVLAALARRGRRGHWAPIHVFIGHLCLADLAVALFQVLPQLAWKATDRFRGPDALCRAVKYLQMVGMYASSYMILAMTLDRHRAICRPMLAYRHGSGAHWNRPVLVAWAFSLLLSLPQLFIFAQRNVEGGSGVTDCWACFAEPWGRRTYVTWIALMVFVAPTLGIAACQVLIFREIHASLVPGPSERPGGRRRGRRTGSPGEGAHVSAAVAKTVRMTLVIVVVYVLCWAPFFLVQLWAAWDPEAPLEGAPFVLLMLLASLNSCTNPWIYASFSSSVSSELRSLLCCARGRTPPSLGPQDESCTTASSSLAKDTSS
Acetylcholinesterase, sequence (P22303 whole entry): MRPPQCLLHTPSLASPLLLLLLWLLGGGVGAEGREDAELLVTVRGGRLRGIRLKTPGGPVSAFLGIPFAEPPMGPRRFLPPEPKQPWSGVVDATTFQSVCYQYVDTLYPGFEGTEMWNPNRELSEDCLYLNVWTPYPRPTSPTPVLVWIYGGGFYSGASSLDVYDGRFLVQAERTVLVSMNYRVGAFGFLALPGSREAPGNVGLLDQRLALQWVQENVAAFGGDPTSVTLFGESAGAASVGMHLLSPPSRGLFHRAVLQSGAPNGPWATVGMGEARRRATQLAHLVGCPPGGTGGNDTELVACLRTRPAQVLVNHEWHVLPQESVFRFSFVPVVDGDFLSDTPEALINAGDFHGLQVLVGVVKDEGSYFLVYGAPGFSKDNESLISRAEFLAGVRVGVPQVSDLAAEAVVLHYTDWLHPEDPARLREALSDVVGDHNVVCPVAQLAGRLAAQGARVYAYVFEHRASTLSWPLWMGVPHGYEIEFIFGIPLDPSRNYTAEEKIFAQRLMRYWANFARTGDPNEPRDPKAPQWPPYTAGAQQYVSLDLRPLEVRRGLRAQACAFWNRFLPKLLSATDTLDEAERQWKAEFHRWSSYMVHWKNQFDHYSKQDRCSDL

Row | SMILES | AC50 [1] | AC50 [2] | AC50 [3] | AC50 [4] | AC50 [5] | AC50 [6] | AC50 [7] | AC50 [8] | AC50 [9] | AC50 [10] | AC50 [11] | AC50 [12] | AC50 [13] | AC50 [14] | AC50 [15] | AC50 [16] | AC50 [17] | AC50 [18] | AC50 [19] | AC50 [20]
1 | CCOC(=O)[C@H](CCc1ccccc1)N[C@@H](C)C(=O)N1CCC[C@H]1C(=O)O | > 10 µM | > 10 µM | > 10 µM | > 10 µM | > 30 µM | > 30 µM | > 10 µM | > 30 µM | – | – | – | – | – | – | – | – | – | – | – | –
2 | CC(=O)c1ccc2c(c1)N(CCCN1CCN(CCO)CC1)c1ccccc1S2 [ACETOPHENAZINE] | – | – | – | > 30 µM | – | – | – | > 30 µM | 17 µM | > 30 µM | > 30 µM | – | – | – | – | – | – | – | – | –
3 | CC(N)Cc1ccccc1 (stereo not given) [AMPHETAMINE] | > 10 µM | > 10 µM | > 30 µM | > 30 µM | > 30 µM | > 30 µM | > 10 µM | > 30 µM | – | > 30 µM | > 30 µM | – | – | – | – | – | – | – | – | –
4 | CN1CCCC(n2nc(Cc3ccc(Cl)cc3)c3ccccc3c2=O)CC1 (stereo not given) [AZELASTINE] | – | – | 18 µM | > 30 µM | – | – | – | > 30 µM | 3.5 µM | > 30 µM | > 30 µM | – | – | – | – | – | – | – | – | –
5 | N[C@@H](C(=O)N[C@@H]1C(=O)N2C(C(=O)O)=C(Cl)CS[C@H]12)c1ccccc1 [CEFACLOR ANHYDROUS] | > 30 µM | > 30 µM | > 30 µM | > 30 µM | – | > 30 µM | – | > 30 µM | > 30 µM | > 30 µM | > 30 µM | > 30 µM | – | – | – | – | – | – | – | –
6 | CCC[C@@H]1C[C@@H](C(=O)N[C@@H]([C@H]2O[C@H](SC)[C@H](O)[C@@H](O)[C@H]2O)[C@H](C)Cl)N(C)C1 [CLINDAMYCIN] | > 10 µM | > 10 µM | > 10 µM | > 10 µM | > 30 µM | > 30 µM | > 10 µM | > 30 µM | – | – | – | – | – | – | – | – | – | – | – | –
7 | CN(C)CCCN1c2ccccc2CCc2ccc(Cl)cc21 [CLOMIPRAMINE] | – | – | – | – | – | – | > 10 µM | – | – | – | – | – | > 30 µM | > 30 µM | 0.0393 µM | > 30 µM | 1.9 µM | 3.63 µM | – | –
8 | O=C(O)c1cc(-c2ccc(F)cc2F)ccc1O [DIFLUNISAL] | > 10 µM | > 10 µM | > 10 µM | – | > 10 µM | > 10 µM | > 10 µM | – | – | – | – | > 30 µM | – | – | – | – | – | – | – | –
9 | C#C[C@]1(O)CC[C@H]2[C@@H]3CCc4cc(O)ccc4[C@H]3CC[C@@]21C [ETHINYL ESTRADIOL] | > 10 µM | > 10 µM | > 10 µM | > 10 µM | 15 µM | > 30 µM | > 10 µM | – | – | – | – | – | > 30 µM | > 30 µM | > 30 µM | > 30 µM | 20.6 µM | > 30 µM | > 30 µM | > 30 µM
10 | NC(N)=Nc1nc(CSCCC(N)=NS(N)(=O)=O)cs1 [FAMOTIDINE] | > 10 µM | > 10 µM | > 10 µM | > 10 µM | > 30 µM | > 30 µM | > 10 µM | > 30 µM | – | – | – | – | – | – | – | – | – | – | – | –
11 | NS(=O)(=O)c1cc2c(cc1Cl)NCNS2(=O)=O [HYDROCHLOROTHIAZIDE] | > 10 µM | > 10 µM | > 10 µM | > 10 µM | > 30 µM | > 30 µM | > 10 µM | – | – | – | – | – | – | – | – | – | – | – | – | –
12 | CC(C)Cc1ccc(CC(=O)O)cc1 [IBUFENAC] | – | – | > 30 µM | > 30 µM | – | – | – | > 30 µM | > 30 µM | > 30 µM | > 30 µM | – | – | – | – | – | – | – | – | –
13 | CC(C)NNC(=O)c1ccncc1 [IPRONIAZID] | – | – | > 30 µM | – | – | – | – | > 30 µM | – | – | – | – | – | – | – | – | – | – | – | –
14 | NC[C@H]1O[C@H](O[C@H]2[C@H](O)[C@@H](O[C@H]3O[C@H](CO)[C@@H](O)[C@H](N)[C@H]3O)[C@H](N)C[C@@H]2N)[C@H](O)[C@@H](O)[C@@H]1O [KANAMYCIN] | > 30 µM | > 10 µM | – | – | > 10 µM | > 10 µM | > 10 µM | – | – | – | – | > 30 µM | – | – | – | – | – | – | – | –
15 | CCN(CC)CCNC(=O)c1cc(Cl)c(N)cc1OC [METOCLOPRAMIDE] | > 10 µM | > 10 µM | > 10 µM | > 10 µM | > 30 µM | > 30 µM | > 10 µM | > 30 µM | – | – | – | – | – | – | – | – | – | – | – | –
16 | CC(C)(C(=O)c1cccnc1)c1cccnc1 [METYRAPONE] | > 10 µM | > 10 µM | > 10 µM | – | > 10 µM | > 10 µM | > 10 µM | – | – | – | – | – | – | – | – | – | – | – | – | –
17 | Cc1cccc(C)c1OCC(C)N (stereo not given) [MEXILETINE] | – | – | > 30 µM | – | – | > 30 µM | – | > 30 µM | – | – | – | > 30 µM | – | – | – | – | – | – | – | –
18 | NC(=O)c1ncn([C@@H]2O[C@H](CO)[C@@H](O)[C@H]2O)c1O [MIZORIBINE] | > 30 µM | > 30 µM | > 30 µM | > 30 µM | – | > 30 µM | – | > 30 µM | > 30 µM | > 30 µM | > 30 µM | > 30 µM | – | – | – | – | – | – | – | –
19 | CCc1nn(CCCN2CCN(c3cccc(Cl)c3)CC2)c(=O)n1CCOc1ccccc1 [NEFAZODONE] | 5.46 µM | > 10 µM | > 10 µM | > 10 µM | 23.9 µM | > 30 µM | – | > 30 µM | – | – | > 10 µM | 7.6 µM | – | – | – | – | – | – | – | –
20 | COC(=O)C1=C(C)NC(C)=C(C(=O)OCC(C)C)C1c1ccccc1[N+](=O)[O-] (stereo not given) [NISOLDIPINE] | > 10 µM | > 10 µM | > 10 µM | – | > 10 µM | > 10 µM | – | 12 µM | – | – | – | > 30 µM | – | – | – | – | – | – | – | –
21 | NC1=NC(=O)C(c2ccccc2)O1 (stereo not given) [PEMOLINE] | > 10 µM | > 10 µM | > 10 µM | – | > 30 µM | > 30 µM | – | – | – | – | – | > 30 µM | – | – | – | – | – | – | – | –
22 | CC[C@H](C)C(=O)O[C@H]1C[C@H](O)C=C2C=C[C@H](C)[C@H](CC[C@@H](O)C[C@@H](O)CC(=O)O)[C@H]21 [PRAVASTATIN] | > 10 µM | > 10 µM | > 30 µM | – | – | – | > 10 µM | > 30 µM | – | – | – | – | – | – | – | – | – | – | – | –
23 | CNC(=O)c1cc(Oc2ccc(NC(=O)Nc3ccc(Cl)c(C(F)(F)F)c3)cc2)ccn1 [SORAFENIB] | 23 µM | > 30 µM | 28 µM | > 30 µM | 16.3 µM | > 30 µM | – | > 30 µM | – | – | > 30 µM | > 30 µM | – | – | – | – | – | – | – | –
24 | CCCS(=O)(=O)Nc1ccc(F)c(C(=O)c2c[nH]c3ncc(-c4ccc(Cl)cc4)cc23)c1F [VEMURAFENIB] | > 30 µM | > 30 µM | > 30 µM | > 30 µM | > 30 µM | > 30 µM | – | > 30 µM | > 30 µM | > 30 µM | > 30 µM | > 30 µM | – | – | – | – | – | – | – | –
25 | OCc1cc([C@@H](O)CNCCCCCCOCCOCc2c(Cl)cccc2Cl)ccc1O [VILANTEROL] | – | – | – | > 30 µM | – | – | – | > 30 µM | 2.8 µM | > 30 µM | > 30 µM | – | – | – | – | – | – | – | – | –
